Measured values: patent US12128111B2, “Glyco-metal-organic frameworks-based hepatic targeted therapeutic drug and preparation method thereof” (Jiangnan University, priority 2019, dated 2024)

Columns and labels:
Huh7 cells [1] = assay: Calcein-AM/PI live and dead staining, in vitro therapeutic effect; assay type: cell-based, human; conditions: 10 μg/mL DOX, 60 μg/mL PCN-224, 70 μg/mL DOX@PCN-224 or DOX@Gal-PCN-224
Protocol: (§1) The in vitro therapeutic effect of the inorganic nanomaterial DOX@Gal-PCN-224 was detected by the live and death staining method and the corresponding MTT experiment.
(§2) Human hepatoma cells Huh7 were inoculated in a laser confocal culture dish (35 mm) at the density of 8×10^4 per well. After culturing for 24 hours, the cells were incubated with a medium containing 10 μg/mL DOX, 60 μg/mL PCN-224, 70 μg/mL DOX@PCN-224 (with the drug loading ratio of 14.2, and the DOX content of about 10 μg/mL) or 70 μg/mL DOX@Gal-PCN-224 (with the drug loading ratio of 14.2, and the DOX content of about 10 μg/mL) respectively for 24 hours. Then the light group was irradiated with a 660 nm light source for 10 min. After incubating for 24 hours, Calcein-AM/PI live and dead co-staining was performed. Finally, the cells were observed under the confocal laser. After the same treatment, the therapeutic effect of each group was further quantified by the MTT experiment.

Huh7 cells [2] = assay: MTT in vitro therapeutic effect; assay type: cell-based, human; conditions: 10 μg/mL DOX, 60 μg/mL PCN-224, 70 μg/mL DOX@PCN-224 or DOX@Gal-PCN-224
Protocol: as §1, §2

subcutaneous solid tumor = assay: Inhibition of tumor growth in subcutaneous solid tumor mouse models; assay type: in vivo, BALB/c nude mice; conditions: no laser; tail vein, DOX 2 mg/kg, PCN-224 12 mg/kg, DOX@PCN-224 and DOX@Gal-PCN-224 14 mg/kg; last day (day 21) versus saline
Protocol: To construct subcutaneous solid tumor mouse models, male BALB/c nude mice with the average weight of 14-17 g at the age of 4 weeks were inoculated with 0.1 ml of 6×10^6 cells/ml PBS at the right gluteus. After four weeks, when the tumor size exceeded 200 mm^3 (volume=0.52×tumor length×tumor width^2), the mice were divided into 2 groups with 5 mice in each group. The DOX@PCN-224-RhB (0.1 mL 0.4 mg/mL) and DOX@Gal-PCN-224-RhB (0.1 mL 0.4 mg/ml) were injected into the tail vein respectively. The fluorescence signal of RhB was detected by a small animal imager (Bruker In Vivo Xtreme II) at set time points (3, 6, 12, 24, 48 hours). Then the mice were sacrificed, the heart, liver, spleen, lung and kidney were isolated, and the RhB fluorescence signal of each organ was detected.
When the subcutaneous tumor size of the mice exceeded 50 mm^3, the mice were randomly divided into 9 groups with 5 mice in each group: (1) saline, (2) free DOX saline (2 mg/kg), (3) free DOX+660 nm laser (2 mg/kg), (4) PCN-224 (12 mg/kg), (5) PCN-224+660 nm laser (12 mg/kg), (6) DOX@PCN-224 (14 mg/kg), (7) DOX@PCN-224+660 nm laser (14 mg/kg), (8) DOX@Gal-PCN-224 (14 mg/kg), and (9) DOX@Gal-PCN-224+660 nm laser (14 mg/kg). […] At the specified time points (days 3, 6, 9, 12, 15, 18, and 21), the tumor volume and mouse body weight of the experimental groups were measured. […]

COc1cccc2c1C(=O)c1c(O)c3c(c(O)c1C2=O)C[C@@](O)(C(=O)CO)C[C@@H]3O[C@H]1C[C@H](N)[C@H](O)[C@H](C)O1 [DOX, doxorubicin]
live and dead staining (red fluorescence = dead cells, apoptosis) (Huh7 cells [1]; Huh7, 660 nm light 10 min): only sporadic red fluorescence | live and dead staining (red fluorescence = dead cells, apoptosis) (Huh7 cells [1]; Huh7, no light): only sporadic red fluorescence | Cell viability (Huh7 cells [2]; Huh7, + 660 nm laser 10 min): 79% | Cell viability (Huh7 cells [2]; Huh7, no laser): 82% | Tumor inhibition efficiency (subcutaneous solid tumor): 49.8%
